According to US20240050402A1, “ANETHOLE TRITHIONE ADMINISTRATION REGIMEN FOR THE PREVENTION OR TREATMENT OF ISCHEMIA-REPERFUSION INJURIES” (priority 2020, published 2024):
Read-outs that look alike come from different tables or passages of the source.

Legend:
[1] = Two-step infusion after bolus, AOL plasma concentration in human; format: in vivo; settings: 2-step infusion 6 then 3 μg/kg/h (3 h + 9 h), lower and higher bolus doses
Procedure: In that respect, the management of the immediate post-initiation period has been evaluated using a 2-step infusion approach, i.e., starting with a higher dose (6 jig/kg/h) in the first 3 hours of infusion, and then stepping down to a lower dose (3 jig/kg/h) for the remaining time (in this example, 9 hours, for a total infusion period of 12 hours).
The same 2-step infusion regimen was tested with 2 different bolus doses.

[2] = test system: myocardial ischemic-reperfusion, LAD coronary artery occlusion; assay: In vivo ischemia-reperfusion model in sheep (balloon catheter LAD occlusion); settings: ST-segment elevation, troponin Ic, CPK, infarct size, ejection fraction; level when occluding balloon deflated
Procedure: (§1) Here, we investigated the effect of AOL in an in vivo ischemic-reperfusion model in sheep, by administering AOL prior to reperfusion to assess the cardioprotective potential of AOL. Several parameters were evaluated: • the infarct size, determined at the end of the experiment (day 3), and assessed by two independent pathologists; • the plasmatic exposure, evaluated by dosing plasma samples collected at regular intervals after administration of AOL by mass spectrometry; • ECG parameters; and • heart contractility, assessed through the measurement of the ejection fraction.
The efficacy of AOL was evaluated by comparing these parameters in vehicle- and AOL-treated groups using the sheep model.
Sheep underwent a myocardial ischemic-reperfusion, while either receiving AOL or the vehicle as a control. The animals underwent a three-day follow-up period and were euthanized on day 3.
Myocardial ischemic followed by reperfusion was induced by using the balloon catheter procedure, which consists in occluding the distal left anterior descending (LAD) coronary artery by inflating/deflating a balloon. This particular procedure allowed to have infarction sizes highly reproducible and to occlude only temporally the coronary artery.
AOL or vehicle were administered as a bolus intravenous (IV) injection 10 minutes prior to reperfusion. […]

[3] = test system: myocardial ischemia-reperfusion, left coronary artery occlusion; assay: In vivo ischemia-reperfusion model in rat (30 min left coronary artery occlusion, 3 h reperfusion); settings: for reduction of the size of the myocardial infarction / reduction of the size of the no-reflow zone: versus control; for Area of necrosis/Area at risk (%) / Area of no-reflow/Area at risk (%): mean±SEM
Procedure: 64 female Sprague Dawley rats (— 6 months old) were anesthetized with intraperitoneal ketamine (90 mg/kg) and xylazine (10 mg/kg). Only female rats were used in this study as it was previously reported that gender had no effect on the extent of myocardial injury in the setting of experimental myocardial infarction in rats (Li & Kloner, 1995. J Thromb Thrombolysis. 2(3):221-225); and that lethal reperfusion-induced arrhythmias led to a higher mortality in male rats versus female rats (Dow et al., 2015. Springerplus. 4:96).
The animals were intubated and mechanically ventilated with room air at respiratory rate of 60 cycles/minute and tidal volume of 1 mL per 100 g body weight (Harvard Apparatus Rodent Ventilator, Model 683, South Natick, Mass). A water circulating heating pad was used to keep the rat body temperature at around 37° C. Their neck surgical area was shaved and cleaned, and catheters were inserted into the jugular vein (for drug delivery) and carotid artery (for arterial waveform monitoring) via cut downs. Under clean conditions, the chest cavity was opened through an incision in the left 4th intercostal space to expose the heart. The pericardium was gently removed to expose the anterior surface of the left ventricle. A 4-0 silk suture was placed under the proximal portion of the left coronary artery as it runs through the interventricular groove just under the tip of the left atrial appendage. The end of the suture was threaded through a small plastic tube to make a snare for coronary artery occlusion. At the time of occlusion, the artery was pulled through the plastic tube and the tube was clamped. Coronary artery reperfusion occurred by releasing the clamp and watching the surface of the heart for reactive hyperemia. The left coronary artery was occluded for 30 minutes followed by 3 hours of reperfusion.
Rats were randomized into one of the 3 groups: • preventive group (n=22): AOL infusion starting 5 minutes before coronary artery occlusion; • curative group (n=20): AOL infusion starting 5 minutes prior to reperfusion; • control group (n=22): vehicle infusion starting 5 minutes before coronary artery occlusion.
The investigators were blinded to the animal randomization. Infusions in all groups were continuous throughout the end of the study (h+3 after reperfusion). In treated rats, the dose of AOL was 0.2 mg/kg/hour delivered in saline at a rate of infusion of 2 mL/kg/hour.
By the end of the 3-hour reperfusion, a solution of thioflavin S was injected into the jugular vein during the last one minute of reperfusion to assess the distribution of the no-reflow phenomenon (also known as “zone of microvascular obstruction”). Thioflavin S is a dye that appears fluorescent in areas receiving perfusion, when heart slices are visualized under UV light; while the no-reflow area, that lacks perfusion, appears dark (non-fluorescent). At the end of the period of reperfusion after thioflavin S injection, the proximal coronary artery was briefly re-occluded and blue dye (Super imperse blue) was injected into the jugular vein.
At the end of this step, the animal was euthanized under deep anesthesia with ketamine/xylazine by intravascular injection of KCl (149 mg/mL) at 0.5 mL/250 g body weight in order to stop the heart in a relative diastolic or relaxed state. The heart was excised and was gently washed in clear saline, and then transected into 4 transverse slices from apex to base.
The heart slices were photographed under white light in order to delineate the ischemic risk zone (pink) versus the non-ischemic regions (blue) that received the blue dye. The heart slices were then photographed under UV light in order to delineate the areas of perfusion by thioflavin S (fluorescent areas) versus the no-reflow zones (non-fluorescent).
Finally, hearts were incubated in 1% of triphenyl tetrazolium chloride (TTC), a chemical that stains viable cells brick red, while dead or necrotic cells appear white. […]

[4] = Clinical pharmacokinetics study in healthy volunteers, IV bolus + 1-step infusion; format: in vivo, human; settings: for Cmax / concentration at 12 hours: both sexes, human, plasma; for Cmax: intravenous, read-out: AOL plasma concentration Cmax; for concentration at 12 hours: iv, read-out: AOL plasma concentration End of 12-hour infusion (IV)
Procedure: The concentration of AOL in the subject's plasma can be measured by means and methods well known to the skilled artisan, such as liquid chromatography-mass spectrometry (LC/MS) or any other suitable means or method. For example, a blood sample from the subject can be centrifuged—preferably within 30 minutes after blood sampling—at about 1 500 g for 10 minutes at 2-8° C. to obtain plasma—the skilled artisan is familiar with method of obtaining plasma from a blood sample, and can readily adapt the centrifugal force, time, temperature and any other parameter according to their routine practice. Immediately after centrifugation, the plasma sample can be analyzed to assess the concentration of AOL by liquid chromatography-mass spectrometry (LC/MS).
A single site, randomized, placebo-controlled, open-label and single blind, ascending dose, cross-over study primarily aiming at evaluating the pharmacokinetics, safety and tolerability of AOL administered intravenously in healthy volunteers versus a marketed formulation of AOL (Sulfarlem 525 ®) administered orally was carried out at QPS Netherlands B.V. (Groningen, The Netherlands). Twelve healthy male and female subjects aged between 18 and 65 years old were included in this study.
During this clinical pharmacokinetics study, several dosage regimens have been tested to assess the safety of AOL and to better characterized its pharmacokinetics profile, when administered by IV route (Table 2).

[5] = Plasma exposure of AOL metabolite in sheep after bolus/infusion; format: in vivo; settings: limit of quantification
Procedure: as §1
AOL or vehicle were administered as a bolus intravenous (IV) injection 10 minutes prior to reperfusion. This bolus injection was expected to ensure an effective AOL plasma exposure on reperfusion and was immediately followed by a continuous IV infusion starting at the beginning of the reperfusion, for a total duration of administration (bolus+infusion) of 130 minutes.
This starkly contrasted with the metabolization profile that we had observed in sheep (Example 2), where AOX remained below the limit of quantification (0.5 ng/mL) after bolus/infusion, despite similar or even higher doses (FIGS. 9B & 9C).

[6] = curative (shortly before reperfusion)
[7] = curative group: AOL 0.2 mg/kg/hour infusion starting 5 minutes prior to reperfusion
[8] = preventive (prior to coronary artery occlusion)
[9] = preventive group: AOL 0.2 mg/kg/hour infusion starting 5 minutes before coronary artery occlusion
[10] = bolus 0.3 μg/kg, infusion 0.4 μg/kg/hr for 12 hours
[11] = bolus 0.9 μg/kg, infusion 1.7 μg/kg/hr for 12 hours
[12] = bolus 1.8 μg/kg, infusion 3 μg/kg/hr for 12 hours
[13] = bolus 4 μg/kg, infusion 6 μg/kg/hr for 12 hours

Compound: COc1ccc(-c2cc(=S)ss2)cc1 [AOL, 5-(4-methoxyphenyl)dithiole-3-thione]
- trough of AOL plasma concentration after the bolus [1]: abolished the trough
- AOL plasma level at reperfusion at which positive impact compared to vehicle was observed [2]: > 1 ng per mL of plasma
- effect on hemodynamics (heart rate, arterial blood pressure) ([3]; baseline, end of occlusion, end of 3 hours reperfusion): without effect on hemodynamics
- reduction of the size of the myocardial infarction [3, 6]: 11%
- reduction of the size of the no-reflow zone [3, 6]: 23%
- Area of necrosis/Area at risk (%) [3, 7]: 50.8 ± 3.9^ %
- Area of no-reflow/Area at risk (%) [3, 7]: 30.1 ± 2.3 %
- reduction of the size of the myocardial infarction [3, 8]: 22%
- reduction of the size of the no-reflow zone [3, 8]: 26%
- Area of necrosis/Area at risk (%) [3, 9]: 44.5 ± 2.9^& %
- Area of no-reflow/Area at risk (%) [3, 9]: 28.8 ± 2.4 %
- slope of linear regression, plasma concentration at Cmax (Y) versus bolus dose (X) ([4]; Y=slope×X, FIG. 8A): 1.046
- slope of linear regression, plasma concentration at end of infusion (Y) versus infusion dose (X) ([4]; Y=slope×X, FIG. 8B): 0.5723
- time at which steady state was reached ([4]; all dosage regimens tested): around 3 hours
- AOL plasma concentration Valley [4, 10]: ~0.08 ng/mL
- AOL plasma concentration Valley [4, 11]: ~0.37 ng/mL
- AOL plasma concentration Valley [4, 12]: ~0.72 ng/mL
- AOL plasma concentration Valley [4, 13]: ~2.67 ng/mL
- Cmax [4, 10]: 0.29 ng/mL
- Cmax [4, 11]: 1.04 ng/mL
- Cmax [4, 12]: 1.94 ng/mL
- Cmax [4, 13]: 4.14 ng/mL
- concentration at 12 hours [4, 10]: ~0.1 ng/mL
- concentration at 12 hours [4, 11]: ~0.8 ng/mL
- concentration at 12 hours [4, 12]: ~1.7 ng/mL
- concentration at 12 hours [4, 13]: ~3.5 ng/mL
- metabolization of AOL into AOX ([4]; human subjects, FIG. 9A): rapidly metabolized into AOX

Compound: Oc1ccc(-c2cc(=S)ss2)cc1 [AOX, desmethylanethole trithione]
- AOX plasma concentration [5]: < 0.5 ng/mL
- appearance of AOX in plasma after start of AOL administration ([4]; human subjects, FIG. 9A): quickly appeared in the plasma
